Patent publication US11945806B2, “Stabilization of amyloidogenic immunoglobulin light chains” (The Scripps Research Institute, priority 2019, dated 2024)

Experiments:
[1] = biological target: WIL-V (Homo sapiens, UniProt P01721); test: Sedimentation velocity analytical ultracentrifugation (SV-AUC); settings: LC 20 μM, 1 at 100 μM
Description: Analytical Ultracentrifugation (AUC). […] Sedimentation was measured by absorbance at 280 nm. Data were processed using SedFit (6).

[2] = biological target: JTO-V (Homo sapiens, UniProt P01721); test: NMR ZZ-exchange experiment; format: binding; settings: JTO-V2•1 complex
Description: Chemical exchange saturation transfer (CEST) experiments were acquired on WIL-V samples at 0.4 mM in the presence of 0.2 or 0.3 mM 1 using a multi-site excitation scheme (16). […] Further details of the analysis of these experiments are given in the Supplemental NMR Analysis described below.

[3] = system: WIL-FL C214S; test: Aggregation measured by SEC (disappearance of soluble dimeric LC); format: biochemical, human; settings: 1 at 200 μM, LC 10 μM, pH 5, 37° C.; 0.066 hr^−1 in the absence of 1
Description: (§1) Aggregation. WIL C214S was dialyzed into ddH2O and filtered. Each 1 ml reaction contained 10 μM LC, ddH2O, 1% DMSO or 200 μM 1 in 1% DMSO, 150 mM NaCl, and ABC buffer (20 mM sodium acetate, 20 mM boric acid, 20 mM sodium citrate, pH 5 with HCl). Components are listed in the order they were added.
For analysis by SEC, reactions were set up in 2 ml tubes (Axygen #SCT-200-B-S) equipped with 4 mm stir bars. For each experiment, four reactions (two replicates each of vehicle and 1) were placed in a microfuge tube rack on top of the center of a stir plate. Reactions were stirred at approximately 2,000 rpm at 37° C., and 60 μl aliquots were removed at the indicated timepoints. Aliquots were centrifuged at 16,000 g at 4° C. for 5 min. 10 μl of the supernatant was injected into a Waters Acquity H-Class Bio-UPLC (ultra performance liquid chromatography) instrument equipped with a BEH200 SEC column (Waters, Milford, MA) equilibrated with PBS with 1 mM EDTA. At the end of an experiment, stir bars were washed for at least 3 h with 1 M NaOH, followed by at least 3 h with 6 M GuHCl at room temperature to remove residual aggregates.
Thus, we also quantified aggregation by measuring the rate of disappearance of soluble dimeric LC using size exclusion chromatography (SEC) (4). […]

[4] = biological target: T1, isolated λ3 C-domain (Homo sapiens, UniProt P0DOY3); test: Fluorogenic coumarin titration; format: binding; settings: 1 at 1 μM
T1 construct: made in house; host or cells: E. coli

[5] = biological target: human serum albumin (HSA) (Homo sapiens, UniProt P02768); test: Binding of 1 to albumin by fluorescence of 1
human serum albumin (HSA), sequence (P02768 25-609): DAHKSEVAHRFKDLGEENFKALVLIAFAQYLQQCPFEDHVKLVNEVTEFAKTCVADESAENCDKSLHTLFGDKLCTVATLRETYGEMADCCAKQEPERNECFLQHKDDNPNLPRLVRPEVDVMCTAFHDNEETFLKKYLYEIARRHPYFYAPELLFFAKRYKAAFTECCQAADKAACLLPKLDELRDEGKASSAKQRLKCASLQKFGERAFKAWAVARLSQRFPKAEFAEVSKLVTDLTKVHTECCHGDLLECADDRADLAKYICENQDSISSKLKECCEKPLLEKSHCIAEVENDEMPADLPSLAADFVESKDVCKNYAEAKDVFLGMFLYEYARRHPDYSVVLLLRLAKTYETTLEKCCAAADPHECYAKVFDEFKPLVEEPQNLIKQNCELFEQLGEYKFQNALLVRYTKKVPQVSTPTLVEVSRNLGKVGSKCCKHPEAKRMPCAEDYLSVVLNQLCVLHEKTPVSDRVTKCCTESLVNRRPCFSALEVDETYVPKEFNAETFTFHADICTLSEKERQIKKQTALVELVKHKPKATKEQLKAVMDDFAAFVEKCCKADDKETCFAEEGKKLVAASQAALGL
Description: Therefore, kinetic stabilizer binding selectivity to FL LCs in preference to other plasma proteins is important to minimize the proportion of free FL LC. Albumin binds many small molecules in blood, typically with μM KD values.

[6] = system: κ1-33 LCs (AL12-FL, κ I O18/O8-FL); test: Fluorogenic coumarin titration, κ1-33 LCs; format: binding, human; settings: 1 at 1 μM
Description: (§2) Fluorogenic coumarin titration. LCs were concentrated to 200 μM in centrifugal concentrators with a 10 kDa membrane, unless the available material was limiting. […] Fluorescence of 1 was measured on a Gemini plate reader (Molecular Devices) using an excitation wavelength of 373 nm and emission wavelength of 445 nm. Data were normalized platewise to the plateau fluorescence value for WIL-FL to calculate the fraction of 1 bound.
Of the two classes of human LCs, λ and κ, λ LCs are more commonly observed in AL, but a fraction of patients secrete κ1-33 LCs (12, 33). […] Recombinant expression of these κ1-33 LCs using a similar protocol to that used for λ6-57 LCs yielded both monomeric and dimeric LCs, as shown by SV-AUC (SI Appendix FIG. S7). […] Binding of an excess of κ1-33 LCs (20 μM) to 1 (1 μM) afforded FL LC•1 fluorescence (FIG. 2f, inset).

[7] = system: 5J8 Fab; test: PK proteolysis; format: biochemical, human
[8] = system: LCs with C214S mutation; test: Fluorogenic coumarin titration, C214S LCs; format: binding, human; settings: 1 at 1 μM
Description: as §2
A successful kinetic stabilizer should, but is not required to, bind to and stabilize patient LCs with a vast range of sequences (30, 31). To ask whether 1 can stabilize other FL LC sequences, we measured binding of 1 to three more recombinant λ6-57 FL LC disulfide-linked dimers: JTO-FL; ALMC2-FL, an AL-associated LC sequence derived from the ALMC2 cell line (32); and the germline sequence 6aJL2-FL.

[9] = biological target: T2, WIL-FL (Homo sapiens, UniProt P01721); test: PK proteolysis of unlabeled WIL-FL by SDS-PAGE; settings: WIL-FL 10 μM, small molecule 100 μM, t=2 h
Description: The experiment in FIG. 1b measured simultaneous proteolysis of labeled and unlabeled LC by adding 20 nM WIL-FL* or JTO-FL* to 5 μM WIL-FL or JTO-FL, respectively. Fluorescein fluorescence images of the SDS-PAGE gels were recorded, after which the gels were Coomassie stained and imaged.

[10] = biological target: T2, WIL-FL; test: Fluorogenic coumarin titration; format: binding; settings: 0.05 in buffer
[11] = system: WIL-FL*; test: FP artefact counterscreen (compounds added after 24 h of proteinase K treatment); format: biochemical, human; settings: compound added after 24 h PK treatment; mean ± sd, n=3
Description: Secondly, to remove compounds that interfere with the FP measurement, the primary screen was repeated in triplicate but compounds were added after 24 h of proteinase K treatment (FIG. 1f). […] Bona fide hits should retain no FP beyond the low control.

[12] = biological target: WIL-FL* (Homo sapiens, UniProt P01721, K101C, form not given); test: PCFP assay with thermolysin; settings: mean ± sd, n=3; 6.75 μM compound
[13] = system: WIL-FL C214S; test: Thioflavin T aggregation kinetics; format: biochemical, human; settings: thioflavin T fluorescence
Description: as §1
Thioflavin T (ThT)-containing aggregation reactions were set up in 96-well plates with similar conditions used for the reactions described above, except each 100 μl reaction also contained 2 μM ThT. Aggregation was induced with shaking as previously described (4). In total, 21 replicates for both vehicle and 1, over four independent experiments (plates) were performed.
WIL-FL C214S aggregates upon vigorous stirring at or below pH 5 to form heterogenous aggregate structures. […] This may be because a given LC can stochastically form different aggregate structures with different kinetics.

## CCN(CC)c1ccc2c(C)cc(=O)oc2c1 [Compound 1, 7-diethylamino-4-methylcoumarin]
[1]
  size distribution (SV-AUC): increase
[2]
  off-rate: 57 ± 2 s⁻¹
[3]
  kagg: 0.011 h⁻¹
[4]
  binding of 1: No binding
[5]
  Kd: 37 ± 3 µM
[5]; 100 μM diflunisal
  affinity of 1 for albumin in the presence of diflunisal: reduced
[6]
  binding of 1: weaker than binding to λ6-57 LCs
[7]
  protection from PK proteolysis: does not protect
[8]
  affinity of LCs for 1: reduces the affinity
[9]
  protection of WIL-FL against PK proteolysis: protects this FL LC against PK proteolysis
[10]
  FP of 1 in the WIL-FL•1 complex: 0.35
[11]
  Counterscreen activity (%): −8.07 ± 3.3%
[12]
  Thermolysin activity (%): 36.4 ± 2.0%
[13]
  rate of aggregation versus vehicle control: decreases the rate of aggregation significantly
